# Test results taken from patent US20230203485A1, “METHODS FOR MODULATING MHC-I EXPRESSION AND IMMUNOTHERAPY USES THEREOF” (Dana-Farber Cancer Institute, Inc., priority 2020, published 2023).
# System: class I gene transcripts
# Experiment: RNA-seq of MCC lines before and after IFN-γ stimulation
# Type: cell-based, human
# Protocol: For samples from the MCC tumors and newly generated cell lines, RNA was first assessed for quality using the Agilent Bioanalyzer (DV200 metric). 100 ng of RNA were used as the input for first strand cDNA synthesis using Superscript III reverse transcriptase and Illumina's TruSeq RNA Access Sample Prep Kit. Synthesis of the second strand of cDNA was followed by indexed adapter ligation with UMI (unique molecular index) adaptors. Subsequent PCR amplification enriched for adapted fragments. Amplified libraries were quantified, normalized, pooled, and hybridized with exome targeting oligos. Following hybridization, bead clean-up, elution, and PCR was performed to prepare library pools for sequencing on Illumina flowcell lanes. Transcriptomes were sequenced to a coverage of at least 50 million reads in pairs.
# Gene counts were obtained from BAM files using featureCounts version 2.0.0. Very lowly expressed genes with average count across samples less than 1 were excluded from analysis. […]
# Differential expression analysis was carried out between IFN-γ plus and minus samples (adjusting for viral status as a covariate) using the negative binomial GLM Wald test of DESeq2, where significance was assessed using the p-values adjusted for multiple comparisons under default settings. […]
substance,measurement,setting,value
IFN-γ: interferon gamma used to stimulate MCC cell lines,class I gene transcripts,"MCC lines, IFN-γ treatment",markedly upregulated
same,"HLA-A, -B, and -C mRNA upregulation",MCC-336 (non-IFN-γ-responsive),"lack of IFN-induced HLA-A, -B, and -C mRNA upregulation"
